Measured values from publication doi:10.1101/2025.08.13.670122v1 (bioRxiv, 2025).
Peptide text beside a SMILES is read from it.

Key:
AT1R [1] = target: T1, AT1R (Homo sapiens, UniProt P30556); experiment: Gαq activation BRET (GABY sensor) in HEK293 cells expressing AT1R; assay type: cell-based; parameters: expressed in transfected cells; host or cells: HEK293 cells, transient PEI transfection; settings: for EC50: HEK293 cells transiently expressing human AT1R, Gαq-RlucII/Gβ1/Gγ1-GFP10 (GABY) BRET sensor, BRET read 10 min after ligand, mean ± SEM of at least three to five independent experiments; for Emax Gαq (% AngII): HEK293/AT1R, GABY BRET sensor, response of the ligand at 10 μM, normalised to AngII
T1 sequence (P30556 1-359): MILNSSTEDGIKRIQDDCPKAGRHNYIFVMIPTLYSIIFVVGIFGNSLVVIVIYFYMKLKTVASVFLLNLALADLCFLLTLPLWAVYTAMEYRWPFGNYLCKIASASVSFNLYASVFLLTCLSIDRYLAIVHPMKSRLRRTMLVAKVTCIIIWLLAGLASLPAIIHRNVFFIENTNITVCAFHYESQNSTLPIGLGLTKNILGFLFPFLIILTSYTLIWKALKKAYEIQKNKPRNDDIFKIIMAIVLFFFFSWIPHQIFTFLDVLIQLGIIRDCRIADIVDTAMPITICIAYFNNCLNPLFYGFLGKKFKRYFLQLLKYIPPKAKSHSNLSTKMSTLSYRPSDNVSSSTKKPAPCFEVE
Text: (§1) We utilized a clonal cell line HEK293, referred to hereafter as HEK293 cells, which has been previously described.[7],[8] As a gracious gift from A. Inoue (Tohoku University, Sendai, Miyagi, Japan), CRISPR Gαq/11 and Gα12/13 knockout cell lines (ΔGq/11 and ΔG12/13, respectively), were derived as previously explained.[48] In brief, a CRISPR-Cas9 system was used to target either GNAQ and GNA11 or GNA12 and GNA13 genes in HEK293T cells simultaneously to generate the Gαq/11 and Gα12/13 knockout cell lines. For the production of adenovirus, we utilized HEK293A cells. All cells were grown in DMEM supplemented with 10% FBS and Penicillin-Streptomycin-L-Glutamine (10000 IU penicillin, 10000 µg/mL Streptomycin, 200 mM L-Glutamine) at 37°C in T175 flasks under a 5% CO2 humidified chamber. Periodic testing was carried out for mycoplasma contamination (ABM™, Mycoplasma PCR Detection kit). For all biosensors used, cells underwent transfection with the PEI reagent, employing a PEI:DNA ratio of 3:1. For the Gαq biosensor, HEK293 cells were transfected with the plasmids coding for Gαq-RLucII (120 ng), Gβ1 (3000 ng), Gγ1-GFP10 (3000 ng), human AT1 (3000 ng) and Salmon sperm DNA (SSD) (880 ng). For the β-arrestin2 recruitment assay, HEK293 cells were transfected with the plasmids coding for 120 ng β-arrestin-2-RLucII, 3000 ng AT1, 3000 ng rGFP-CAAX, and 3880 ng SSD. For the measurement of PKC, HEK293 cells were transfected with 3000 ng AT1, 600 ng PKC-c1b, and 6400 ng SSD. […] 100 µL of the cell/DNA mixture was added to white 96-well plates and incubated at 37°C at 5% CO2 for 48 h. For the Rho assay, ΔG12/13 cells were seeded at a density of 9,000 cells per well in poly-ornithine-coated white 96-well plates and transfected the following day. In brief, 1 μg of total DNA in 100 μL of PBS was mixed with 100 μL of PBS containing 3 μL of 1 mg/mL PEI. For Rho signaling, 150 ng of AT1R DNA with 25 ng of PKN-RBD-RlucII [8], and 100 ng of rGFP-CAAX were used. Empty pcDNA was used to reach 1 µg of the total DNA amount in 100 μL of PBS. The DNA was then mixed with 100 μL of PBS containing 3 μL of 1 mg/mL PEI. After a 20-min incubation, the DNA/PEI complexes were dispensed into cells in 96-well plates (15 µL/well), and the experiment was carried out 48 h post-transfection.
(§2) On the day of the experiment, each well was washed with 80 µL of Tyrode’s buffer (140 mM NaCl, 2.7 mM KCl, 1 mM CaCl2, 12 mM NaHCO3, 5.6 mM D-glucose, 0.5 mM MgCl2, 0.37 mM NaH2PO4, 25 mM Hepes (pH 7.4)). This was followed by incubation for 1 h in Tyrode’s buffer at room temperature. For the Gαq, β-arrestin-2, and PKC biosensors used in HEK293 cells, coelenterazine 400A (at a final concentration of 5 μM) was added 10 min before stimulation. Cells were then stimulated with increasing doses of the indicated ligand, and BRET signals were measured using a Tristar2 (Berthold) microplate reader 10 min later. For the PKC and Rho biosensors in VSMCs, and the Rho biosensor in ΔG12/13 cells, cells were similarly stimulated with ligands for 1 min, 1 min 30 s, and 3 min, respectively, before BRET measurement. […] BRET signals were then measured using a Synergy2 (BioTek) microplate reader. The applied filter set was 410/80 nm and 515/30 nm, designed to detect the light emissions of RlucII (Renilla luciferase) (donor) and rGFP (acceptor), respectively.

AT1R [2] = target: T1, AT1R; experiment: β-arrestin2 recruitment BRET (β-arrestin2-RLucII/rGFP-CAAX) in HEK293 cells expressing AT1R; assay type: cell-based; parameters: expressed in transfected cells; host or cells: HEK293 cells, transient PEI transfection; settings: for Emax βarr2 (% AngII): HEK293/AT1R, β-arrestin2 BRET, response of the ligand at 10 μM, normalised to AngII; for EC50: HEK293 cells transiently expressing AT1R, β-arrestin2-RLucII/rGFP-CAAX BRET, read 10 min after ligand, mean ± SEM of at least three to five independent experiments, SEM, read-out: EC50 βarr2
Text: as §1, §2

| EC50 (AT1R [1]) | Emax βarr2 (% AngII) (AT1R [2]) | EC50 (AT1R [2]) | Emax Gαq (% AngII) (AT1R [1]) | EC50 (AT1R [1]; SEM) | SMILES |
| --- | --- | --- | --- | --- | --- |
| > 10000 nM | 63 % AngII | 957 ± 111 nM | – | – | CC[C@H](C)[C@H](NC(=O)[C@H](Cc1ccc(O)cc1)NC(=O)[C@@H](NC(=O)[C@H](CCCNC(=N)N)NC(=O)[C@@H](N)CC(=O)O)C(C)C)C(=O)N[C@@H](Cc1c[nH]cn1)C(=O)N1CCC[C@H]1C(=O)N[C@@H](CCC(=O)O)C(=O)O [compound 6] (H-DRVYIHPE-OH; N-terminus assumed) |
| – | 95 % AngII | 1.4 ± 0.2 nM | 52 % AngII | 5.5 ± 3.9 nM | CC[C@H](C)[C@H](NC(=O)[C@H](Cc1ccc(O)cc1)NC(=O)[C@@H](NC(=O)[C@H](CCCNC(=N)N)NC(=O)[C@@H](N)CC(=O)O)C(C)C)C(=O)N[C@@H](Cc1c[nH]cn1)C(=O)N1CCC[C@H]1C(=O)N[C@@H](CC1CCCCC1)C(=O)O [compound 4] |
| – | 97 % AngII | 1 ± 0.3 nM | 69 % AngII | 3.9 ± 1.9 nM | CC[C@H](C)[C@H](NC(=O)[C@H](Cc1ccc(O)cc1)NC(=O)[C@@H](NC(=O)[C@H](CCCNC(=N)N)NC(=O)[C@@H](N)CC(=O)O)C(C)C)C(=O)N[C@@H](Cc1c[nH]cn1)C(=O)N1CCC[C@H]1C(=O)N[C@@H](Cc1ccc2ccccc2c1)C(=O)O [compound 9] |
| – | 100 % AngII | 7.4 ± 1.9 nM | 48 % AngII | 17 ± 10 nM | C=CCOc1ccc(C[C@H](NC(=O)[C@@H]2CCCN2C(=O)[C@H](Cc2c[nH]cn2)NC(=O)[C@@H](NC(=O)[C@H](Cc2ccc(O)cc2)NC(=O)[C@@H](NC(=O)[C@H](CCCNC(=N)N)NC(=O)[C@@H](N)CC(=O)O)C(C)C)[C@@H](C)CC)C(=O)O)cc1 [compound 10] |
| – | 105 % AngII | – | 89 % AngII | – | CC[C@H](C)[C@H](NC(=O)[C@H](Cc1ccc(O)cc1)NC(=O)[C@@H](NC(=O)[C@H](CCCNC(=N)N)NC(=O)[C@@H](N)CC(=O)O)C(C)C)C(=O)N[C@@H](Cc1c[nH]cn1)C(=O)N1CCC[C@H]1C(=O)N[C@@H](Cc1ccc(O)cc1)C(=O)O [24c] (H-DRVYIHPY-OH) |
| – | – | 2.2 ± 0.4 nM | – | 4.7 ± 1.1 nM | CC[C@H](C)[C@H](NC(=O)[C@H](Cc1ccc(O)cc1)NC(=O)[C@@H](NC(=O)[C@H](CCCN=C(N)N)NC(=O)[C@@H](N)CC(=O)O)C(C)C)C(=O)N[C@@H](Cc1c[nH]cn1)C(=O)N1CCC[C@H]1C(=O)N[C@@H](Cc1c[nH]c2ccccc12)C(=O)O [compound 21] (H-DRVYIHPW-OH) |
| > 10000 nM | 45 % AngII | 4560 ± 3880 nM | – | – | CC[C@H](C)[C@H](NC(=O)[C@H](Cc1ccc(O)cc1)NC(=O)[C@@H](NC(=O)[C@H](CCCNC(=N)N)NC(=O)[C@@H](N)CC(=O)O)C(C)C)C(=O)N[C@@H](Cc1c[nH]cn1)C(=O)N1CCC[C@H]1C(=O)N[C@@H](CCCN)C(=O)O [compound 5] |
| – | 92 % AngII | 0.86 ± 0.16 nM | 36 % AngII | 3 ± 3.6 nM | CCCC[C@H](NC(=O)[C@@H]1CCCN1C(=O)[C@H](Cc1c[nH]cn1)NC(=O)[C@@H](NC(=O)[C@H](Cc1ccc(O)cc1)NC(=O)[C@@H](NC(=O)[C@H](CCCNC(=N)N)NC(=O)[C@@H](N)CC(=O)O)C(C)C)[C@@H](C)CC)C(=O)O [compound 2] |
| – | 97 % AngII | 1.9 ± 0.3 nM | 29 % AngII | 14 ± 13 nM | CC[C@H](C)[C@H](NC(=O)[C@H](Cc1ccc(O)cc1)NC(=O)[C@@H](NC(=O)[C@H](CCCNC(=N)N)NC(=O)[C@@H](N)CC(=O)O)C(C)C)C(=O)N[C@@H](Cc1c[nH]cn1)C(=O)N1CCC[C@H]1C(=O)N[C@@H](Cc1cscn1)C(=O)O [compound 20] |
| – | 90 % AngII | 3.7 ± 0.7 nM | 31 % AngII | 22 ± 11 nM | CC[C@H](C)[C@H](NC(=O)[C@H](Cc1ccc(O)cc1)NC(=O)[C@@H](NC(=O)[C@H](CCCNC(=N)N)NC(=O)[C@@H](N)CC(=O)O)C(C)C)C(=O)N[C@@H](Cc1c[nH]cn1)C(=O)N1CCC[C@H]1C(=O)N[C@@H](Cc1cccnc1)C(=O)O [compound 18] |
| – | 93 % AngII | 2.8 ± 0.6 nM | 49 % AngII | 4.6 ± 3 nM | CC[C@H](C)[C@H](NC(=O)[C@H](Cc1ccc(O)cc1)NC(=O)[C@@H](NC(=O)[C@H](CCCNC(=N)N)NC(=O)[C@@H](N)CC(=O)O)C(C)C)C(=O)N[C@@H](Cc1c[nH]cn1)C(=O)N1CCC[C@H]1C(=O)N[C@@H](Cc1cccc(O)c1)C(=O)O [24b] |
| – | 109 % AngII | 6.7 ± 0.8 nM | 99 % AngII | 7.9 ± 1.7 nM | CC[C@H](C)[C@H](NC(=O)[C@H](Cc1ccc(O)cc1)NC(=O)[C@@H](NC(=O)[C@H](CCCNC(=N)N)NC(=O)[C@@H](N)CC(=O)O)C(C)C)C(=O)N[C@@H](Cc1c[nH]cn1)C(=O)N1CCC[C@H]1C(=O)N[C@H](C(=O)O)C(c1ccccc1)c1ccccc1 [compound 15] |
| – | 98 % AngII | 15 ± 4 nM | 45 % AngII | 16 ± 12 nM | CC[C@H](C)[C@H](NC(=O)[C@H](Cc1ccc(O)cc1)NC(=O)[C@@H](NC(=O)[C@H](CCCNC(=N)N)NC(=O)[C@@H](N)CC(=O)O)C(C)C)C(=O)N[C@@H](Cc1c[nH]cn1)C(=O)N1CCC[C@H]1C(=O)N[C@@H](Cc1ccc(-c2ccccc2)cc1)C(=O)O [compound 13] |
| – | 101 % AngII | 2.2 ± 0.4 nM | 48 % AngII | 6.9 ± 2.6 nM | CC[C@H](C)[C@H](NC(=O)[C@H](Cc1ccc(O)cc1)NC(=O)[C@@H](NC(=O)[C@H](CCCNC(=N)N)NC(=O)[C@@H](N)CC(=O)O)C(C)C)C(=O)N[C@@H](Cc1c[nH]cn1)C(=O)N1CCC[C@H]1C(=O)N[C@@H](Cc1ccccn1)C(=O)O [compound 19] |
